{"source": "ChEMBL document CHEMBL5465560", "about": "“Selectivity Literature for EUbOPEN Chemogenomic Library” (2024)", "key": {"[1]": {"molecular_target": "Proto-oncogene tyrosine-protein kinase ROS (Homo sapiens) (UniProt P08922)", "sequence (P08922 whole entry)": "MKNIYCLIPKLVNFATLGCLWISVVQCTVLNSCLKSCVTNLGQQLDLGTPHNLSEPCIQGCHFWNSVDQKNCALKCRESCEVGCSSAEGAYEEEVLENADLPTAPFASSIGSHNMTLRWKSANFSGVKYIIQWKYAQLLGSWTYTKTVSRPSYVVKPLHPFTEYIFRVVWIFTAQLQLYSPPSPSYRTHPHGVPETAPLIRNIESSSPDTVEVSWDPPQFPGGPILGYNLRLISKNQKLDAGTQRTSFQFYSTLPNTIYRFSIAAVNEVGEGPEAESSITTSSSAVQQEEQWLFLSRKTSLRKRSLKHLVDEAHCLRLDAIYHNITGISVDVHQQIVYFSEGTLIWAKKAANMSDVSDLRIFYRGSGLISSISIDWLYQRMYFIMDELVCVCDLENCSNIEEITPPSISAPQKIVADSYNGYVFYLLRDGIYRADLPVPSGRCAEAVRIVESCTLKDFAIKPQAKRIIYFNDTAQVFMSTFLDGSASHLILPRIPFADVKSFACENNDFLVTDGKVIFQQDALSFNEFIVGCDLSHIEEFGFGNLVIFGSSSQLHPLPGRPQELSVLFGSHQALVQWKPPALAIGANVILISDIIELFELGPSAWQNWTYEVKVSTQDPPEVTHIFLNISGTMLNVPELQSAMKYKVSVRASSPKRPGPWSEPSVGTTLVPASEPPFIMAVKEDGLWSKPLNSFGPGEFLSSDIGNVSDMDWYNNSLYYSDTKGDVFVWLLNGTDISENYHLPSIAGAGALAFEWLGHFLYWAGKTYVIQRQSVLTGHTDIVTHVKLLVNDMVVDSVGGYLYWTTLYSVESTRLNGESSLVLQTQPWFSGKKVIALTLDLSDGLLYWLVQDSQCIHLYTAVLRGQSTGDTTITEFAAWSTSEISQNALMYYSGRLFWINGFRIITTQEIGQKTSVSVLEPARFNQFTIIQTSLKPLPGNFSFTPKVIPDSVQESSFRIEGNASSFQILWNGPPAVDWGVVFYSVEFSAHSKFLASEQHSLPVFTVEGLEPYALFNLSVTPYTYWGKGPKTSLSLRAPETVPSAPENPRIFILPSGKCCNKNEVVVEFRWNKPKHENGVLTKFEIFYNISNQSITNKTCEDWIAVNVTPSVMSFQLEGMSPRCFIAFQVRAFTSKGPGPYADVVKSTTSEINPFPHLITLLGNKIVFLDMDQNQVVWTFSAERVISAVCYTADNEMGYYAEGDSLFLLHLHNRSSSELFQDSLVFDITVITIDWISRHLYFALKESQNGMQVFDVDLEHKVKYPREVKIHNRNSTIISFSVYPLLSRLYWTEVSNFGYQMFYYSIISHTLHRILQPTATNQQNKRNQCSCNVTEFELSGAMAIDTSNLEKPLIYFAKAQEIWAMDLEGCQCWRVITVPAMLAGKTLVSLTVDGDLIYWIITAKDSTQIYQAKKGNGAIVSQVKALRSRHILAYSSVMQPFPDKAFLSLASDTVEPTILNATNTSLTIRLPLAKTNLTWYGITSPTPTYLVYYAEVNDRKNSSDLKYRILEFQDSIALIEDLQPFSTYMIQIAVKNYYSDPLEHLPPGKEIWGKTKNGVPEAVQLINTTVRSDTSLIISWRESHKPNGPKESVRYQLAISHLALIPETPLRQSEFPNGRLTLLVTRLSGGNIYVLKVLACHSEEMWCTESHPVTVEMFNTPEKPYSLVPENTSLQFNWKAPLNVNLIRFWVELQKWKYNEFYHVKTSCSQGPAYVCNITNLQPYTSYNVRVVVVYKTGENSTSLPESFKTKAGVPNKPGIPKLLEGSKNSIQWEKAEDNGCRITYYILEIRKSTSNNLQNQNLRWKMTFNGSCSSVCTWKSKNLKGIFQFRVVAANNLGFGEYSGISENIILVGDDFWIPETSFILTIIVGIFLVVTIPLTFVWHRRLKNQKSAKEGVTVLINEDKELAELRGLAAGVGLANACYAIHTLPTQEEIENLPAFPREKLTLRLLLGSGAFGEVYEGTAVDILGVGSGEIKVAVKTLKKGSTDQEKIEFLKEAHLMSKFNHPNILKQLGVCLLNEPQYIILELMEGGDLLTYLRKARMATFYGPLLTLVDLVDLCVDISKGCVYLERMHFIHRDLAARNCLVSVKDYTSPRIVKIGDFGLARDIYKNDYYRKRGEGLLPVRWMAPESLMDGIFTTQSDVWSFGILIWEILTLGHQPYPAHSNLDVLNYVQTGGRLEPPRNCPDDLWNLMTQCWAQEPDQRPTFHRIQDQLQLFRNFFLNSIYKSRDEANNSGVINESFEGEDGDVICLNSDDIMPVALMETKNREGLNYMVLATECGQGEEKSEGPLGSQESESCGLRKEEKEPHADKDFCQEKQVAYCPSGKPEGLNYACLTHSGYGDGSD", "experiment": "Selectivity interaction (KinomeScan (DiscoverX)) EUB0000229b ROS1", "details": "at 10 µM"}, "[2]": {"molecular_target": "Calcium/calmodulin-dependent protein kinase type 1G (Homo sapiens) (UniProt Q96NX5)", "sequence (Q96NX5 whole entry)": "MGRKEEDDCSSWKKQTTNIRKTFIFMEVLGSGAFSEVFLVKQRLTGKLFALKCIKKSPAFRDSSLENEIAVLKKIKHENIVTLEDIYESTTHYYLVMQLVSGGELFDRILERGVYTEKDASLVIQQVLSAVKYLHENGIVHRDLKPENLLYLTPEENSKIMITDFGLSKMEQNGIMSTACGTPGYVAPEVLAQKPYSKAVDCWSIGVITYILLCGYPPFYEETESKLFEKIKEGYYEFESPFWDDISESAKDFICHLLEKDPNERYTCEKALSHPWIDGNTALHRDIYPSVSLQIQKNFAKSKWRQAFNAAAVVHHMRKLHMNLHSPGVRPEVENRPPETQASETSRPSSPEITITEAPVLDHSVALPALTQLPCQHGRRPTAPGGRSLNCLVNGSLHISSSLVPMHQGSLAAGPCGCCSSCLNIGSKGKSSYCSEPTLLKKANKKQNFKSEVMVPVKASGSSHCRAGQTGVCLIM", "experiment": "Selectivity interaction (Kinase panel (DSF assay)) EUB0001559a CAMK1G"}, "[3]": {"experiment": "Selectivity interaction (PWWP, WD40, and Tudor domain panel (DSLS measurements, literature)) EUB0000270b WDR20"}, "[4]": {"molecular_target": "Mitogen-activated protein kinase kinase kinase 11 (Homo sapiens) (UniProt Q16584)", "sequence (Q16584 whole entry, looked up)": "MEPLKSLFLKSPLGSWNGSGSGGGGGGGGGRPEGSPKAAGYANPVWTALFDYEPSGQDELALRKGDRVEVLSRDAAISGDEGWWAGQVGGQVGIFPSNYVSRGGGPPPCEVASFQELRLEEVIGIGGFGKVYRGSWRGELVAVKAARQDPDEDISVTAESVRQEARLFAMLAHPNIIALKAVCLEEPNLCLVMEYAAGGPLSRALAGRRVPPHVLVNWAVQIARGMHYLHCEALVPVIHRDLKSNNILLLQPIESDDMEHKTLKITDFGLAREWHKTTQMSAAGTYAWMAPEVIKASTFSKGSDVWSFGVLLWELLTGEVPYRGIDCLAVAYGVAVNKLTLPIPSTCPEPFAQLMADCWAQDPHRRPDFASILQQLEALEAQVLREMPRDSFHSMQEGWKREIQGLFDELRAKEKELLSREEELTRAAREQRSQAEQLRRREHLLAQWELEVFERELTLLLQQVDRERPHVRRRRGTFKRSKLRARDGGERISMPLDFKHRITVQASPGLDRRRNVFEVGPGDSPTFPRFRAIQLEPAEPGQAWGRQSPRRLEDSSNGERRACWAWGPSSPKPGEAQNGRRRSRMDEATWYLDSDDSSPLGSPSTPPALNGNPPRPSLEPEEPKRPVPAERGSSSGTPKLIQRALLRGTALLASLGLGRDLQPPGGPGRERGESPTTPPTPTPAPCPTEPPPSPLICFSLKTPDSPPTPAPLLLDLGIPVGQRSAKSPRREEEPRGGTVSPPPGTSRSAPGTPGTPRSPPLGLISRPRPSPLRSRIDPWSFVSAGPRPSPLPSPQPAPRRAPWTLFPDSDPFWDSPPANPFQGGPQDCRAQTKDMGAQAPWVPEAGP", "experiment": "Selectivity interaction (ActivX KiNativ screen (kinase selectivity in THP-1 cell lysates)) EUB0000639a MAP3K11", "type": "subcellular", "details": "lysate, at 0.2 µM"}, "[5]": {"molecular_target": "T1, Serine/threonine-protein kinase TBK1 (Homo sapiens) (UniProt Q9UHD2)", "T1 sequence (whole entry)": "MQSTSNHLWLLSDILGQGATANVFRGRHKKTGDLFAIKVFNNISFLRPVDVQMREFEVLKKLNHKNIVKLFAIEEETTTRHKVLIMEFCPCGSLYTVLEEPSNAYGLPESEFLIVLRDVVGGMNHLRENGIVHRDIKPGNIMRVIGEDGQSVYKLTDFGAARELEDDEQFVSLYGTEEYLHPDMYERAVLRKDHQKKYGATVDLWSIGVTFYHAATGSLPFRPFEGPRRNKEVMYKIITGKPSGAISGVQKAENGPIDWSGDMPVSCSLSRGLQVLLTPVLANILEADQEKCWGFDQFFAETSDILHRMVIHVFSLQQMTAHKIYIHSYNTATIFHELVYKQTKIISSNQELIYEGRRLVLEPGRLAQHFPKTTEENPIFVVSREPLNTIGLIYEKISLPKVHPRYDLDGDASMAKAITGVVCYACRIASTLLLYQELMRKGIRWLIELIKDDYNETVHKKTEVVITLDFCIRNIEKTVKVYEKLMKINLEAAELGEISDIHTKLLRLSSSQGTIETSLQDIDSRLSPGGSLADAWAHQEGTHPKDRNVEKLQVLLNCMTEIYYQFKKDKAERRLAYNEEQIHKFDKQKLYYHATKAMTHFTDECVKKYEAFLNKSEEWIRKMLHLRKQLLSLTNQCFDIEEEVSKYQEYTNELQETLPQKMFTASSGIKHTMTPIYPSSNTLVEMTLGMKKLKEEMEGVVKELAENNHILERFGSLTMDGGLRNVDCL", "experiment": "Selectivity interaction (ActivX KiNativ screen (kinase selectivity in THP-1 cell lysates)) EUB0000639a TBK1", "type": "subcellular", "details": "lysate, at 0.04 µM"}, "[6]": {"molecular_target": "Platelet-derived growth factor receptor alpha (Homo sapiens, UniProt P16234)", "sequence (P16234 whole entry)": "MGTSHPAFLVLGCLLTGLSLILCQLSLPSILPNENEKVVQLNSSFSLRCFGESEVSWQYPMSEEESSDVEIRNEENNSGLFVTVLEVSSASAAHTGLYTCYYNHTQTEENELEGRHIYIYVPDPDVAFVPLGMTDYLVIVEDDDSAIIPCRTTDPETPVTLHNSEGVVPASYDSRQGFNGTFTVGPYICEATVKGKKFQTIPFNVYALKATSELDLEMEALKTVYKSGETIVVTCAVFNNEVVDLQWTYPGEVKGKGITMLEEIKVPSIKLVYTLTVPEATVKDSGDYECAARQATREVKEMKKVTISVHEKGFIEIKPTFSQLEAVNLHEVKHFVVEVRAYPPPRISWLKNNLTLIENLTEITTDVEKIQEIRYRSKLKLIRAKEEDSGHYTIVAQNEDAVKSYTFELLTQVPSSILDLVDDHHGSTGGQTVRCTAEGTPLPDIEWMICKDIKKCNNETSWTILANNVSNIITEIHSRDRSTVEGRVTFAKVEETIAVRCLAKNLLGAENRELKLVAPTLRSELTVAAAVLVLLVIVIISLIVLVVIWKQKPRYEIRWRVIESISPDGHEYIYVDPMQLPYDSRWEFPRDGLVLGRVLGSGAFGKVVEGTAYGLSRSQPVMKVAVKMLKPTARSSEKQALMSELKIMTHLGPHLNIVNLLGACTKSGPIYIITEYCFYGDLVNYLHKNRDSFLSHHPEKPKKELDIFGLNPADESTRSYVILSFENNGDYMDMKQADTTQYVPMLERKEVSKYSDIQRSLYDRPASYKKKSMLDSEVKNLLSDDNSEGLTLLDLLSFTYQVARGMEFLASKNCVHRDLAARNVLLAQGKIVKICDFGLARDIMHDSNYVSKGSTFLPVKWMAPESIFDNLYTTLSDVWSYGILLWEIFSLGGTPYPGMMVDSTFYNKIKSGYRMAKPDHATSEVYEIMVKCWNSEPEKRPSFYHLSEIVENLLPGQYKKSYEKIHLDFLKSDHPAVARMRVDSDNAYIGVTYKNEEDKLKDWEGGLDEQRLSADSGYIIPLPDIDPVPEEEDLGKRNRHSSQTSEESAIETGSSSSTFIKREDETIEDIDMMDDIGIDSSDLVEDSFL", "experiment": "Selectivity interaction (Kinase screening (Upstate/Millipore)) EUB0000604a PDGFRA"}, "[7]": {"molecular_target": "T2, Serine/threonine-protein kinase TAO3 (Homo sapiens) (UniProt Q9H2K8)", "T2 sequence (whole entry)": "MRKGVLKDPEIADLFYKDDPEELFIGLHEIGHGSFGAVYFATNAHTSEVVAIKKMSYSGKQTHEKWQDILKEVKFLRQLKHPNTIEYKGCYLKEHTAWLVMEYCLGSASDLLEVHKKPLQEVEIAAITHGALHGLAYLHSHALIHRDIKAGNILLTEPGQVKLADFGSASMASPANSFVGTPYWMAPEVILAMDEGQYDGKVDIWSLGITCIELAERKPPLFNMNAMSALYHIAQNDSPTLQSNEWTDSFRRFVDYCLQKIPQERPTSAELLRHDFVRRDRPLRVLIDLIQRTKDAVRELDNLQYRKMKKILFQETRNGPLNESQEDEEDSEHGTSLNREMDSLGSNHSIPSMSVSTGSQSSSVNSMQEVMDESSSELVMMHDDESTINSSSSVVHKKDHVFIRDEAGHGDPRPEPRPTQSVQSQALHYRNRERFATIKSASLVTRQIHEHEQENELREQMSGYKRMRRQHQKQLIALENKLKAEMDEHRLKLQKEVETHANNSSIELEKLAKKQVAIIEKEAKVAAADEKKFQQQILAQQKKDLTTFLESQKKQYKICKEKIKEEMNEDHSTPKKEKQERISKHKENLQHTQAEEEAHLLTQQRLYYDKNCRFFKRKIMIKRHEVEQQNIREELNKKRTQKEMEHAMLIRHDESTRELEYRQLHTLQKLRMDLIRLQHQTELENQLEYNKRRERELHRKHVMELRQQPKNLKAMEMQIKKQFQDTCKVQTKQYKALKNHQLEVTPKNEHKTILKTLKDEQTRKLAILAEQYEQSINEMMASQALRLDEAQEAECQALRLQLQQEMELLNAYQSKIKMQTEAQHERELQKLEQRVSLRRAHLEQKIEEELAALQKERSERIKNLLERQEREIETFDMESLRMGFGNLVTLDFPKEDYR", "details": "at 10 µM"}, "[8]": {"molecular_target": "T3, Mitogen-activated protein kinase kinase kinase 12 (Homo sapiens) (UniProt Q12852)", "T3 sequence (whole entry)": "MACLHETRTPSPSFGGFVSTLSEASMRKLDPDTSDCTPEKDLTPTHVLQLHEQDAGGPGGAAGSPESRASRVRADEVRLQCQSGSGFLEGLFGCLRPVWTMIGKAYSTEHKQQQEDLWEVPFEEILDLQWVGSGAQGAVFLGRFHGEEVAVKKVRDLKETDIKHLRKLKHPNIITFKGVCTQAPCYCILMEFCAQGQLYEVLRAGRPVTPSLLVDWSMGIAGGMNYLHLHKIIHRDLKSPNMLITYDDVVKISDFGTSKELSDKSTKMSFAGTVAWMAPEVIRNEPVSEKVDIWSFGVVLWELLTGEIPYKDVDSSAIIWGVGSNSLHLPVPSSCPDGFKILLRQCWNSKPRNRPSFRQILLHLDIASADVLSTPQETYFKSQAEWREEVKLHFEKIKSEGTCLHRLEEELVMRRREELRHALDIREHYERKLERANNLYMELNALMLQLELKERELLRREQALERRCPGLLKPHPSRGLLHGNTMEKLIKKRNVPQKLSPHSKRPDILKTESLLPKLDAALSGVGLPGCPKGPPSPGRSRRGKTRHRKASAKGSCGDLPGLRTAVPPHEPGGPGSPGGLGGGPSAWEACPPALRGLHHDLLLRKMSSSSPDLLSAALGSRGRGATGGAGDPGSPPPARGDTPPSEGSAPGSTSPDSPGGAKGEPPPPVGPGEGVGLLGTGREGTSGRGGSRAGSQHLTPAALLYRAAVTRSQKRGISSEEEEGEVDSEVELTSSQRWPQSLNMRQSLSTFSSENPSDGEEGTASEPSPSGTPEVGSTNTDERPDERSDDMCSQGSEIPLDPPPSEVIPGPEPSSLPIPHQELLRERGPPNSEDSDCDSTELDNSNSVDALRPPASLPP", "experiment": "Selectivity interaction (KinomeScan (DiscoverX)) EUB0001619a MAP3K12", "details": "at 1 µM"}, "[9]": {"molecular_target": "Serine/threonine-protein kinase MARK2 (Homo sapiens) (UniProt Q7KZI7)", "experiment": "Selectivity interaction (KinomeScan (DiscoverX)) EUB0001619a MARK2", "details": "at 1 µM"}}, "data": [{"smiles": "COc1cc(N(C)c2ccnc3ccc(C(F)(F)F)cc23)cc(OC)c1OC", "values": [{"measurement": "% binding", "setting": "[1]", "result": 86, "unit": "%"}]}, {"smiles": "CN(C(=O)c1cnn2cccnc12)c1cc2c(cc1N1CCOCC1)C(=O)N(C[C@@H](F)C(C)(C)O)C2", "values": [{"measurement": "dTM", "setting": "[2]", "result": -0.6, "unit": "K"}]}, {"smiles": "Cc1cc(CN)cc(C)c1-c1ncn(C)c1-c1cncn1C", "values": [{"measurement": "dTagg", "setting": "[3]", "result": 0, "unit": "K"}]}, {"smiles": "CC[C@@H]1[C@H](F)C(=O)N[C@@H]1COc1nccc2cc(C(N)=O)c(OC)cc12", "note": "[ZIMLOVISERTIB]", "values": [{"measurement": "% of inhibition", "setting": "[4]", "result": -15.6, "unit": "%"}, {"measurement": "% of inhibition", "setting": "[5]", "result": -7.8, "unit": "%"}]}, {"smiles": "Cc1cnc(Nc2ccc(F)cc2Cl)nc1-c1c[nH]c(C(=O)N[C@H](CO)c2cccc(Cl)c2)c1", "values": [{"measurement": "% of inhibition", "setting": "[6]", "result": 3, "unit": "%"}]}, {"smiles": "Cc1cc([C@@H](C)Nc2ccccc2C(=O)O)c2nc(N3CCOCC3)cc(=O)n2c1", "note": "[AZD-6482]", "values": [{"measurement": "% of control", "setting": "[7]", "result": 100, "unit": "%"}]}, {"smiles": "N#Cc1cccc(-c2c[nH]c3ncnc(N4CCOCC4)c23)c1", "values": [{"measurement": "% of control", "setting": "[8]", "result": 96, "unit": "%"}, {"measurement": "% of control", "setting": "[9]", "result": 43, "unit": "%"}]}]}
